Test results published in paper PMC7666214, “Kinetic insights into the peroxygenase activity of cellulose-active lytic polysaccharide monooxygenases (LPMOs)” (Nature Communications, 2020).

Molecular target: T1, HRP (Armoracia rusticana, UniProt P00433)
T1 construct: gene PRXC1A; commercial horseradish peroxidase, used as purchased
T1 sequence (P00433 31-338): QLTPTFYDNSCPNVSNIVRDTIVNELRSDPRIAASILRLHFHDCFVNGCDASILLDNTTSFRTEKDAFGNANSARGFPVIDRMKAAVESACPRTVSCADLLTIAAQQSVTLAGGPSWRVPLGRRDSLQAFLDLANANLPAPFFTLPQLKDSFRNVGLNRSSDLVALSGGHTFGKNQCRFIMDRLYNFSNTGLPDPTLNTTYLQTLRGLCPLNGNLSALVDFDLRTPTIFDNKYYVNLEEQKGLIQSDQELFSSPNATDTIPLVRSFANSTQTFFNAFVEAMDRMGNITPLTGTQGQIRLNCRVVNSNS
Assay: absorbance at […] nm (resorufin)
Format: biochemical
Conditions: H2O2 co-substrate, Bis-Tris 50 mM pH 6.1, 25 °C; ping-pong

SMILES: CC(=O)N1c2ccc(O)cc2Oc2cc(O)ccc21 [AR, N-acetyl-3,7-dihydroxyphenoxazine]
- absorbance at 570 nm (resorufin): The kinetics of HRP with the AR substrate was consistent with the ping-pong mechanism
